Measured values reported in PMC8037182, “Solvothermal Synthesis of Multiple Dihydropyrimidinones at a Time as Inhibitors of Eg5” (Molecules, 2021).

Tests used:
[1] = system: L929 cell line; experiment: Cytotoxicity MTS assay, L929 cell line; format: cell-based; conditions: for OD490 values, Mean / OD490 values, Well 1 / OD490 values, Well 2 / OD490 values, Well 3: L929 cell line, first assay
Procedure, shortened: (§1)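 MTS antiproliferation; 1000 cells/well, 24 h pre-incubation; compound 0.5–100 µM final, 24 h exposure; vehicle 0.025% DMSO; monastrol positive control; MTS 2 h, 37 °C, 5% CO2; A490; IC50 by non-linear regression of % viability vs concentration; three independent duplicate runs.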

[2] = system: Hela cell line; experiment: Cytotoxicity MTS assay, Hela cell line; format: cell-based; conditions: for OD490 value, Mean / OD490 value, Well 1 / OD490 value, Well 2 / OD490 value, Well 3: Hela cell line, MTS;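 as to OD490 value, Mean: blank control wells received 0.025% DMSO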;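 as to OD490 value, Well 1: blank control wells received 0.025% DMSO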;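 as to OD490 value, Well 2: blank control wells received 0.025% DMSO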;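 as to OD490 value, Well 3: blank control wells received 0.025% DMSO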
Procedure, shortened: as §1

In the case of `CCOC(=O)c1[nH]c(C2NC(=O)NC(C)=C2C(=O)Nc2ccccc2OC)c(C(=O)OC)c1C` (centres unmarked) [D3], the “OD490 values, Mean” value ([1]; 0.5μM) is reported as 1.3020, the “OD490 values, Well 1” value ([1]; 0.5μM) is reported as 1.4715 and the “OD490 values, Well 2” value ([1]; 0.5μM) is reported as 1.2756. The “OD490 values, Well 3” value ([1]; 0.5μM) was 1.1589, the “OD490 values, Mean” value ([1]; 1μM) was 1.3230 and the “OD490 values, Well 1” value ([1]; 1μM) was 1.4997. For the same molecule, the “OD490 values, Well 2” value ([1]; 1μM) was 1.2316, the “OD490 values, Well 3” value ([1]; 1μM) was 1.2376 and the “OD490 values, Mean” value ([1]; 10μM) was 1.3760. The “OD490 values, Well 1” value ([1]; 10μM) was 1.4568, the “OD490 values, Well 2” value ([1]; 10μM) was 1.4534 and the “OD490 values, Well 3” value ([1]; 10μM) was 1.2179. For the same molecule, the “OD490 values, Mean” value ([1]; 25μM) was 1.2499, the “OD490 values, Well 1” value ([1]; 25μM) was 1.2312 and the “OD490 values, Well 2” value ([1]; 25μM) was 1.2473. The “OD490 values, Well 3” value ([1]; 25μM) was 1.2712, the “OD490 values, Mean” value ([1]; 50μM) was 1.1939 and the “OD490 values, Well 1” value ([1]; 50μM) was 1.2135. The “OD490 values, Well 2” value ([1]; 50μM) was 1.2454, the “OD490 values, Well 3” value ([1]; 50μM) was 1.1229 and the “OD490 values, Mean” value ([1]; 100μM) was 1.1051. The “OD490 values, Well 1” value ([1]; 100μM) was 1.0930, the “OD490 values, Well 2” value ([1]; 100μM) was 1.2053 and the “OD490 values, Well 3” value ([1]; 100μM) was 1.0171. For the same molecule, the IC50 ([1]; MTS assay, 24 h exposure, ordinary fibroblast, not cancer cells) was > 150 µM, the “OD490 value, Mean” value ([2]; 0.5μM, first assay) was 2.7753 and the “OD490 value, Well 1” value ([2]; 0.5μM, first assay) was 2.9485. The “OD490 value, Well 2” value ([2]; 0.5μM, first assay) was 2.6032, the “OD490 value, Well 3” value ([2]; 0.5μM, first assay) was 2.7743 and the “OD490 value, Mean” value ([2]; 0.5μM, second assay) was 2.7117. For the same molecule, the “OD490 value, Well 1” value ([2]; 0.5μM, second assay) was 2.7664, the “OD490 value, Well 2” value ([2]; 0.5μM, second assay) was 2.9230 and the “OD490 value, Well 3” value ([2]; 0.5μM, second assay) was 2.4458. The “OD490 value, Mean” value ([2]; 0.5μM, third assay) was 2.8303, the “OD490 value, Well 1” value ([2]; 0.5μM, third assay) was 2.8863 and the “OD490 value, Well 2” value ([2]; 0.5μM, third assay) was 2.8745. For the same molecule, the “OD490 value, Well 3” value ([2]; 0.5μM, third assay) was 2.7301, the “OD490 value, Mean” value ([2]; 1μM, first assay) was 2.5355 and the “OD490 value, Well 1” value ([2]; 1μM, first assay) was 2.6242. For the same molecule, the “OD490 value, Well 2” value ([2]; 1μM, first assay) was 2.5242, the “OD490 value, Well 3” value ([2]; 1μM, first assay) was 2.4580 and the “OD490 value, Mean” value ([2]; 1μM, second assay) was 2.6019. For the same molecule, the “OD490 value, Well 1” value ([2]; 1μM, second assay) was 2.7530, the “OD490 value, Well 2” value ([2]; 1μM, second assay) was 2.3014 and the “OD490 value, Well 3” value ([2]; 1μM, second assay) was 2.7514. For the same molecule, the “OD490 value, Mean” value ([2]; 1μM, third assay) was 2.6769, the “OD490 value, Well 1” value ([2]; 1μM, third assay) was 2.6365 and the “OD490 value, Well 2” value ([2]; 1μM, third assay) was 2.7412. For the same molecule, the “OD490 value, Well 3” value ([2]; 1μM, third assay) was 2.6531, the “OD490 value, Mean” value ([2]; 10μM, first assay) was 2.6047 and the “OD490 value, Well 1” value ([2]; 10μM, first assay) was 2.6883. The “OD490 value, Well 2” value ([2]; 10μM, first assay) was 2.6311, the “OD490 value, Well 3” value ([2]; 10μM, first assay) was 2.4948 and the “OD490 value, Mean” value ([2]; 10μM, second assay) was 2.6182. The “OD490 value, Well 1” value ([2]; 10μM, second assay) was 2.7032, the “OD490 value, Well 2” value ([2]; 10μM, second assay) was 2.6012 and the “OD490 value, Well 3” value ([2]; 10μM, second assay) was 2.5503. The “OD490 value, Mean” value ([2]; 10μM, third assay) was 2.6419, the “OD490 value, Well 1” value ([2]; 10μM, third assay) was 2.7745 and the “OD490 value, Well 2” value ([2]; 10μM, third assay) was 2.6563. The “OD490 value, Well 3” value ([2]; 10μM, third assay) was 2.4949, the “OD490 value, Mean” value ([2]; 25μM, first assay) was 2.3973 and the “OD490 value, Well 1” value ([2]; 25μM, first assay) was 2.3040. For the same molecule, the “OD490 value, Well 2” value ([2]; 25μM, first assay) was 2.5337, the “OD490 value, Well 3” value ([2]; 25μM, first assay) was 2.3542 and the “OD490 value, Mean” value ([2]; 25μM, second assay) was 2.3999. The “OD490 value, Well 1” value ([2]; 25μM, second assay) was 2.5301, the “OD490 value, Well 2” value ([2]; 25μM, second assay) was 2.4698 and the “OD490 value, Well 3” value ([2]; 25μM, second assay) was 2.1998. The “OD490 value, Mean” value ([2]; 25μM, third assay) was 2.4241, the “OD490 value, Well 1” value ([2]; 25μM, third assay) was 2.5355 and the “OD490 value, Well 2” value ([2]; 25μM, third assay) was 2.5124. The “OD490 value, Well 3” value ([2]; 25μM, third assay) was 2.2245, the “OD490 value, Mean” value ([2]; 50μM, first assay) was 2.2890 and the “OD490 value, Well 1” value ([2]; 50μM, first assay) was 2.3872. For the same molecule, the “OD490 value, Well 2” value ([2]; 50μM, first assay) was 2.2920, the “OD490 value, Well 3” value ([2]; 50μM, first assay) was 2.1878 and the “OD490 value, Mean” value ([2]; 50μM, second assay) was 2.2189. The “OD490 value, Well 1” value ([2]; 50μM, second assay) was 2.3332, the “OD490 value, Well 2” value ([2]; 50μM, second assay) was 2.3089 and the “OD490 value, Well 3” value ([2]; 50μM, second assay) was 2.0147. The “OD490 value, Mean” value ([2]; 50μM, third assay) was 2.2950, the “OD490 value, Well 1” value ([2]; 50μM, third assay) was 2.4301 and the “OD490 value, Well 2” value ([2]; 50μM, third assay) was 2.3354. The “OD490 value, Well 3” value ([2]; 50μM, third assay) was 2.1196, the “OD490 value, Mean” value ([2]; 100μM, first assay) was 1.7776 and the “OD490 value, Well 1” value ([2]; 100μM, first assay) was 1.7277. The “OD490 value, Well 2” value ([2]; 100μM, first assay) was 1.8895, the “OD490 value, Well 3” value ([2]; 100μM, first assay) was 1.7156 and the “OD490 value, Mean” value ([2]; 100μM, second assay) was 1.7632. The “OD490 value, Well 1” value ([2]; 100μM, second assay) was 1.6245, the “OD490 value, Well 2” value ([2]; 100μM, second assay) was 1.8996 and the “OD490 value, Well 3” value ([2]; 100μM, second assay) was 1.7654. For the same molecule, the “OD490 value, Mean” value ([2]; 100μM, third assay) was 1.7923, the “OD490 value, Well 1” value ([2]; 100μM, third assay) was 1.6654 and the “OD490 value, Well 2” value ([2]; 100μM, third assay) was 1.8247. For the same molecule, the “OD490 value, Well 3” value ([2]; 100μM, third assay) was 1.8869 and the IC50 ([2]; MTS assay, 24 h exposure) was 115 µM.
